# From the OligoGym collection
# After the bases stand the sugars from the 5' end (letter, count) and the backbone: PS all phosphorothioate, else s phosphorothioate and o phosphodiester by linkage. Methylation of C is not given here. e = 2'-O-(2-methoxyethyl) (MOE); k = constrained ethyl (cEt); d = 2'-deoxy (DNA)
# Target: SOD1
# Conditions: ASO
sequence,measurement,setting,value
"TGGCAAAATACAGGTCA (sugars e2 k2 d8 k2 e3, PS)",target mRNA inhibition,"HepG2, 5 µM",33%
"TGGGCGATCCCAATTAC (sugars e3 k2 d7 k2 e3, PS)",target mRNA inhibition,"HepG2, 3 µM",20%
"TGGTCCATTACTTTCCT (sugars e3 k2 d7 k2 e3, PS)",target mRNA inhibition,"HepG2, 3 µM",5%
"TGTTTATCAGGATACAT (sugars e2 k2 d8 k2 e3, PS)",target mRNA inhibition,"HepG2, 4 µM",70%
"TGTTTATTGGGCGATCC (sugars e2 k2 d8 k2 e3, PS)",target mRNA inhibition,"HepG2, 4 µM",50%
"TTAAAGTGAGGACCTGC (sugars e3 k2 d7 k2 e3, PS)",target mRNA inhibition,"HepG2, 3 µM",14%
"TTAAGTCTGGCAAAATA (sugars e2 k2 d9 k2 e2, PS)",target mRNA inhibition,"HepG2, 5 µM",42%
"TTAATACCCATCTGTGA (sugars e2 k2 d9 k2 e2, PS)",target mRNA inhibition,"HepG2, 5 µM",26%
"TTAATACCCATCTGTGA (sugars e3 k2 d7 k2 e3, PS)",target mRNA inhibition,"HepG2, 3 µM",2%
"TTAATACCCATCTGTGATTT (sugars e5 d10 e5, PS)",target mRNA inhibition,"HepG2, 5 µM",11%
"TTAATGTTTATCAGGA (sugars ekddddddddekekee, linkages s1 o1 s8 o3 s2)",target mRNA inhibition,"A431, 0.12 µM",0%
same,target mRNA inhibition,"A431, 0.6 µM",7%
same,target mRNA inhibition,"A431, 3 µM",21%
same,target mRNA inhibition,"A431, 15 µM",46%
same,target mRNA inhibition,"HepG2, 0.222 µM",52%
same,target mRNA inhibition,"HepG2, 0.667 µM",73%
same,target mRNA inhibition,"HepG2, 2 µM",84%
same,target mRNA inhibition,"HepG2, 6 µM",93%
"TTAATGTTTATCAGGAT (sugars e2 k2 d8 k2 e3, linkages s1 o2 s9 o2 s2)",target mRNA inhibition,"A431, 0.12 µM",12%
same,target mRNA inhibition,"A431, 0.6 µM",36%
same,target mRNA inhibition,"A431, 3 µM",49%
same,target mRNA inhibition,"A431, 15 µM",72%
same,target mRNA inhibition,"HepG2, 0.222 µM",67%
same,target mRNA inhibition,"HepG2, 0.667 µM",90%
same,target mRNA inhibition,"HepG2, 2 µM",97%
same,target mRNA inhibition,"HepG2, 6 µM",94%
"TTAATGTTTATCAGGAT (sugars e2 k2 d9 k2 e2, PS)",target mRNA inhibition,"HepG2, 0.1875 µM",43%
same,target mRNA inhibition,"HepG2, 0.75 µM",78%
same,target mRNA inhibition,"HepG2, 3 µM",93%
same,target mRNA inhibition,"HepG2, 4 µM",92%
same,target mRNA inhibition,"HepG2, 12 µM",98%
"TTACACCACAAGCCAAA (sugars e2 k2 d8 k2 e3, PS)",target mRNA inhibition,"HepG2, 4 µM",60%
"TTACACTTTTAAGATTACAG (sugars e5 d10 e5, PS)",target mRNA inhibition,"HepG2, 5 µM",0%
"TTACAGTGTTTAATGTTT (sugars e5 d8 e5, linkages s1 o3 s9 o2 s2)",target mRNA inhibition,"A431, 0.12 µM",4%
same,target mRNA inhibition,"A431, 0.6 µM",0%
same,target mRNA inhibition,"A431, 3 µM",33%
same,target mRNA inhibition,"A431, 15 µM",17%
same,target mRNA inhibition,"HepG2, 0.222 µM",17%
same,target mRNA inhibition,"HepG2, 0.667 µM",42%
same,target mRNA inhibition,"HepG2, 2 µM",76%
same,target mRNA inhibition,"HepG2, 6 µM",54%
"TTACTTTCCTTCTGCTC (sugars e3 k2 d7 k2 e3, PS)",target mRNA inhibition,"HepG2, 3 µM",22%
"TTACTTTCCTTCTGCTCGAA (sugars e5 d10 e5, PS)",target mRNA inhibition,"HepG2, 3 µM",30%
"TTAGTTTGAATTTGGATTCT (sugars e5 d10 e5, PS)",target mRNA inhibition,"HepG2, 5 µM",0%
"TTATTGGGCGATCCCAA (sugars e2 k2 d9 k2 e2, PS)",target mRNA inhibition,"HepG2, 4 µM",41%
"TTCATCCTTTGGCCCAC (sugars e3 k2 d7 k2 e3, PS)",target mRNA inhibition,"HepG2, 3 µM",26%
"TTCATGGACCACCAGTGTGC (sugars e5 d10 e5, PS)",target mRNA inhibition,"HepG2, 5 µM",21%
"TTCCAAGTGATCATAAATCA (sugars e5 d10 e5, PS)",target mRNA inhibition,"HepG2, 5 µM",18%
"TTCCCCACACCTTCACTG (sugars e5 d8 e5, linkages s1 o3 s9 o2 s2)",target mRNA inhibition,"A431, 0.12 µM",2%
same,target mRNA inhibition,"A431, 0.6 µM",0%
same,target mRNA inhibition,"A431, 3 µM",0%
same,target mRNA inhibition,"A431, 15 µM",9%
same,target mRNA inhibition,"HepG2, 0.222 µM",7%
same,target mRNA inhibition,"HepG2, 0.667 µM",4%
same,target mRNA inhibition,"HepG2, 2 µM",42%
same,target mRNA inhibition,"HepG2, 6 µM",17%
"TTCTCACTACAGGTACT (sugars e2 k2 d9 k2 e2, PS)",target mRNA inhibition,"HepG2, 5 µM",37%
"TTCTGACAAGTTTAATA (sugars e3 k2 d7 k2 e3, PS)",target mRNA inhibition,"HepG2, 3 µM",6%
"TTGCCCAAGTCATCTGC (sugars e3 k2 d7 k2 e3, PS)",target mRNA inhibition,"HepG2, 3 µM",92%
"TTGGATTCTTTTAATAG (sugars e2 k2 d8 k2 e3, PS)",target mRNA inhibition,"HepG2, 5 µM",23%
"TTTATTCACAGGCTTGA (sugars e2 k2 d8 k2 e3, PS)",target mRNA inhibition,"HepG2, 5 µM",44%
"TTTATTGGGCGATCCCA (sugars e2 k2 d9 k2 e2, PS)",target mRNA inhibition,"HepG2, 4 µM",46%
"TTTATTGGGCGATCCCA (sugars e3 k2 d7 k2 e3, PS)",target mRNA inhibition,"HepG2, 3 µM",20%
"TTTCCACCTTTGCCCAA (sugars e3 k2 d7 k2 e3, PS)",target mRNA inhibition,"HepG2, 3 µM",78%
"TTTTAGTTTGAATTTGGATT (sugars e5 d10 e5, PS)",target mRNA inhibition,"HepG2, 5 µM",0%
"TTTTATTCACAGGCTTG (sugars e2 k2 d8 k2 e3, PS)",target mRNA inhibition,"HepG2, 5 µM",43%
"TTTTTTAGTTTGAATTTGGA (sugars e5 d10 e5, PS)",target mRNA inhibition,"HepG2, 5 µM",0%
